From patent US20260027096A1, “PHD INHIBITORS” (Oxford University Innovation Limited, priority 2023, published 2026)

Key:
[1] = molecular target: PHD2 (Homo sapiens (Human), UniProt Q9GZT9); test: PHD2 RF-MS (RapidFire LC-MS) hydroxylation assay; type: biochemical
Method: In brief, cDNA encoding for the catalytic domain of tPHD2 (181-426 residues) was cloned into the pET28a (+)/pET24a (+) vectors (Novagen), to enable production of tPHD2 (residues 181-426) protein with/without an N-terminal His6-tag. The tPHD2 (residues 181-426) encoding construct was transformed into the Escherichia coli BL21 DE3 cell line; protein production was induced with 0.5 mM […] (3-5 hr at 28° C.). […] The protein was exchanged into 50 mM Tris-HCl buffer (pH 7.5) and concentrated to % 40 mg/ml.
Tris(hydroxymethyl)aminomethane was from Fisher. Ferrous ammonium sulfate (FAS), 2-oxoglutarate (2OG) and L-ascorbic acid were from Sigma Aldrich; solutions of these were prepared freshly each day. All inhibition assays were carried out in 384-well polypropylene plates (Greiner Bio-One). PHD2 assays were performed in assay buffer (50 mM Tris. Cl pH 7.5, 50 mM NaCl). […] The final assay concentration of DMSO was kept constant at 0.5%. PHD2 protein was prepared at a concentration of 300 nM in assay buffer and 25 μl dispensed across each 384-well assay plate. The PHD2 solution was allowed to equilibrate with the inhibitors for 15 minutes at room temperature; the enzyme reaction then initiated by dispense of 25 μl of substrate (20 μM FAS, 200 µM L-ascorbic acid, 10 μM CODD peptide and 20 μM 2OG in the assay buffer. Enzyme reactions were allowed to proceed for 20 minutes at room temperature and the reaction terminated by addition of 10% formic acid (5 μl). Assay plates were then transferred to a RapidFire RF360 sampling robot (Agilent) connected to an Agilent 6530 accurate mass quadrupole-time-of-flight (Q-TOF) mass spectrometer. Assay samples were aspirated under vacuum and loaded onto a C4 solid phase extraction (SPE) cartridge. After loading the C4 SPE was washed with 0.1% formic acid in water to remove non-volatile buffer salts and then peptide was eluted from the SPE with 85% acetonitrile, 15% water containing 0.1% formic acid onto the mass spectrometer. Peptide charge states were monitored in positive mode. Ion chromatogram data were extracted for the +2 charge state and peak area data integrated using RapidFire Integrator software (Agilent). % conversion of the CODD peptide substrate to the +16 hydroxylated peptide was calculated using the equation: % conversion=100×hydroxylated/(hydroxylated+non-hydroxylated peptide). IC50 values were determined from non-linear regression plots using GraphPad prism.
Example 158—Structure activity relationship (SAR) studies for PHD inhibition SAR studies for PHD inhibition were carried out on the compounds of the invention. Compounds were screened against PHD2 using the RF-MS hydroxylation assay.

[2] = test system: HIF1-α in Hep3B cells; test: Immunoblots of Hep3B cells; type: cell-based; settings: 100 μM and 20 μM, 3 hours
Method: Example 159—Immunoblots of Hep3B cells treated with compounds of the invention Hep3B cells were treated with 117, 119, 122 and 123 of the invention (Examples 93, 95, 98 and 99) at 100 μM (A) and 20 μM (B) PHD inhibitors for 3 hours. The blots show protein levels of HIF1-α and β-actin at the 3rd hour after treatment.

[3] = test system: THP-1, MOLM13, OCI-AML3 and MV411 cells; test: Proliferation and apoptosis of human AML cell lines THP-1, MOLM13, OCI-AML3 and MV411; type: cell-based; settings: 50 μM, single agent
Method: (A-B) Proliferation and apoptosis of human AML cell lines THP-1, MOLM13, OCI-AML3 and MV411 treated with vehicle control and 50 μM Molidustat (5). Data represent mean±SEM; **** p<0.0001.
(A-B) Proliferation and apoptosis of human AML cell lines MOLM-13, OCI-AML3, MV411 and THP-1 treated with vehicle control, 50 μM Daprodustat (2), 50 μM IOX5 (68, example 46), 0.1 μM Venetoclax (MOLM-13 and MV411), 0.01 μM Venetoclax (OCI-AML3 and THP-1) and combination therapy. (C-D) Early-([…]) and late stage (PI^+ Annexin^+) apoptosis of human AML patient samples treated with vehicle control, 50 μM Daprodustat (2), 50 μM IOX5 (68, example 46), 0.01 μM Venetoclax and combination therapy. Data represent mean±SEM; * p<0.05; ** p<0.01, *** p<0.001, **** p<0.0001.
(§1) Viable cells were counted by trypan blue exclusion at the indicated time points. To analyse cells undergoing apoptosis, cells were suspended in binding buffer containing PE-conjugated Annexin-V or FITC-conjugated Annexin-V, and either PI or DAPI.

[4] = test system: human THP-1 cells; test: Proliferation and apoptosis of THP-1 cells; type: cell-based
From the text: as §1
To determine consequences of Daprodustat (2) and IOX5 (68, example 46) treatment on AML cells driven by the MLL-AF9→MEIS1/HOXA9 axis, mouse iMLL-AF9-and Meis1Hoxa9-transformed AML cells were employed, as well as human THP-1 cells, which harbour the MIL-AF9 translocation. […] Thus, providing compelling evidence that PHD inhibition compromises AML cells driven by the MLL-AF9→MEIS1/HOXA9 axis.

[5] = molecular target: KDM6B: lysine specific demethylase 6B (Homo sapiens (Human), UniProt O15054); test: KDM6B LCMS demethylation assay
Method: The peptide substrate for KDM5B was a 21-mer histone-H3 peptide (ARTK(me3)[sequence]), as synthesized by Peptide Protein Research (Hampshire, UK). The KDM6B peptide substrate was a 17-mer histone-H3 peptide ([sequence](me3)[sequence]), as synthesized by GL Biochem (Shanghai) Ltd (Shanghai, China).
KDM6B reactions were performed under optimized buffer conditions (50 mM MES pH 7.0). […] The enzyme reaction was progressed for 30 minutes and the reaction stopped by addition of formic acid to a final concentration of 1% (v/v). Control reactions included a 0.5% DMSO control and a reaction with a known inhibitor of KDM6B (10 mM GSKJ1,^j).
(§2) 4 ml of enzyme reaction were injected and loaded onto a ZORBAX RRHD Eclipse Plus C18 column (Agilent Technologies, CA, US). Solvent A consisted of LCMS grade water containing 0.1% (v/v) formic acid and solvent B consisted of acetonitrile containing 0.1% (v/v) formic acid. […] The mass spectrometer was operated in the positive ion mode with a drying gas temperature of 280° C., drying gas flow rate of 13 L/min, nebulizer pressure of 40 psig, sheath gas temperature of 350° C., sheath gas flow rate of 12 L/min, capillary voltage of 4000 V, nozzle voltage of 1000 V. All acquired data were analyzed using Agilent MassHunter Qualitative Analysis (Version B.07.00) software.

[6] = molecular target: KDM5B: lysine specific demethylase 5B (Homo sapiens (Human), UniProt Q9UGL1); test: KDM5B LCMS demethylation assay
Method: KDM5B enzyme reactions were performed under optimized buffer conditions (50 mM MES pH 7.0, 50 mM NaCl, 1 mM TCEP). […] The enzyme reaction was progressed for 30 minutes, and the reaction stopped by addition of formic acid to a final concentration of 1% (v/v). Control reactions included a 0.5% DMSO control and a reaction with a known inhibitor of KDM5B (10 mM KDOAM25, ^i).
as §2

[7] = molecular target: KDM4A: lysine specific demethylase 4A (Homo sapiens (Human), UniProt O75164); test: KDM4A LCMS demethylation assay
Method: as §2

[8] = test system: HIF1-α in HEK293 T cells; test: Immunoblots of HEK293 T cells; type: cell-based; settings: HEK293 T cells, 0.5, 1, 5, 10, 20, 50 and 100 μM, 18 hours
Method: Cells were grown to 90% confluency.
Protocols for cell culture and immunoblotting were performed using the established methods.

[9] = test system: other 2OG oxygenases (off-target sites commonly inhibited by existing PHD inhibitors); test: Selectivity versus other 2OG oxygenases / off-target sites (FIG. 14); type: biochemical
[10] = test system: MV411 AML cells in NBSGW recipient mice; test: MV411 xenotransplantation in NBSGW mice, combination with Venetoclax; type: in vivo, mouse; settings: 14 days treatment; IOX5 i.p. twice daily, Venetoclax o.g. once daily
Method: 14 days following transplantation, recipient mice were treated with IOX5 (68, example 46), Venetoclax or vehicle control. Dosing regimen consisted of 2× daily via i.p. injection (IOX5 (68, example 46) or vehicle) and/or 1× daily via o.g. (Venetoclax or vehicle). […] (E-G) Percentage of human CD45+CD33+CD14+ cells in the BM, spleen and liver, respectively (n=5). (H) Survival curve of mice treated with IOX5 (68, example 46), Venetoclax, IOX5 (68, example 46)+Venetoclax or vehicle control (n=6-7). (I-J) Proliferation and Annexin-V+DAPI+analyses, respectively, of THP-1 cells treated with Ven, IOX5, FIH inhibitor (FIHi; DM-NOFD), IOX5 (68, example 46)+FIHi, IOX5 (68, example 46)+Ven, FIHi+Ven, IOX5 (68, example 46)+FIHi+Ven or vehicle control (n=6). Statistical significance represented as in (A-B). Data represent mean±SEM; *p<0.05; ** p<0.01; *** p<0.001; **** p<0.0001.
100,000 THP-1 cells, 100,000 OCI-AM3 cells or 100,000 MV411 cells (for combination experiments) were tail vein injected into non-irradiated 10-to 12-week-old mixed gender NBSGW mice and began drug treatment 14 days after transplantation. […] Mice were culled 5 weeks after transplantation.
Mice in combination treatment experiments with Venetoclax (ABT-199) (MCE) were dosed once daily with 100 mg/kg via oral gavage (o.g.).
Further to findings in Example 170, the efficacy of IOX5 (68, example 46)+Venetoclax combination in vivo was investigated (FIG. 38D). MV411 AML cells were engrafted (with MLL-AF4 and FLT3-ITD mutation) and the recipient mice were treated with a vehicle, IOX5 (68, example 46), Venetoclax, and a combination of IOX5 (68, example 46)+Venetoclax.

Sequence of PHD2 (Q9GZT9 181-426): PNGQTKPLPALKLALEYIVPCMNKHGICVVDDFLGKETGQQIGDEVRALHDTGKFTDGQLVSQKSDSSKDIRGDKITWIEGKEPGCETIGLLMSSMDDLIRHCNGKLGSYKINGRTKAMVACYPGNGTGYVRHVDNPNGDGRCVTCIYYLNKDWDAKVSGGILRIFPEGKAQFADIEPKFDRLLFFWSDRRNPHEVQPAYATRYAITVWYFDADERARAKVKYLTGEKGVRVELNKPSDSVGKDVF
Sequence of KDM5B: lysine specific demethylase 5B (Q9UGL1 1-822): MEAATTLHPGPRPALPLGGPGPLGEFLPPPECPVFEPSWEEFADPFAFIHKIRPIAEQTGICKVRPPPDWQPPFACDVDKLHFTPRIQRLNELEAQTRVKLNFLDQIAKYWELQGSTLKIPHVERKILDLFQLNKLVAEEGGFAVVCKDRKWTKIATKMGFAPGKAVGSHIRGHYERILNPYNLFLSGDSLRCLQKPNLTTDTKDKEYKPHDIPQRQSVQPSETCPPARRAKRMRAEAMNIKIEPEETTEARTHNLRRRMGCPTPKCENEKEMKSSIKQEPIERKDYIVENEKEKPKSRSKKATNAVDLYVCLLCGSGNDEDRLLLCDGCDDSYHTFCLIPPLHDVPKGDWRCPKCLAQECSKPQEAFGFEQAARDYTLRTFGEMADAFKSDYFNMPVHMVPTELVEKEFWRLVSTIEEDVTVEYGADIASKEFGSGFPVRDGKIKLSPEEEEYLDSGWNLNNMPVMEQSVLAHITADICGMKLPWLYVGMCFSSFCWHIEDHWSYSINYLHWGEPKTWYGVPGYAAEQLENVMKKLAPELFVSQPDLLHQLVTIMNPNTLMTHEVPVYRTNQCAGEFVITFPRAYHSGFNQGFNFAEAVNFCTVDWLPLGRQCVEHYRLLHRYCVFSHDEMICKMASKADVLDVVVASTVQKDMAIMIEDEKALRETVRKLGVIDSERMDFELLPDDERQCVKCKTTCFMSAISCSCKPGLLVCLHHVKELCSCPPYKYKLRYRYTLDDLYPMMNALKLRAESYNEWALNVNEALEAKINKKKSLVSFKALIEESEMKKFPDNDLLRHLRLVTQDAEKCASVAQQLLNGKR
Sequence of KDM6B: lysine specific demethylase 6B (O15054 1141-1590): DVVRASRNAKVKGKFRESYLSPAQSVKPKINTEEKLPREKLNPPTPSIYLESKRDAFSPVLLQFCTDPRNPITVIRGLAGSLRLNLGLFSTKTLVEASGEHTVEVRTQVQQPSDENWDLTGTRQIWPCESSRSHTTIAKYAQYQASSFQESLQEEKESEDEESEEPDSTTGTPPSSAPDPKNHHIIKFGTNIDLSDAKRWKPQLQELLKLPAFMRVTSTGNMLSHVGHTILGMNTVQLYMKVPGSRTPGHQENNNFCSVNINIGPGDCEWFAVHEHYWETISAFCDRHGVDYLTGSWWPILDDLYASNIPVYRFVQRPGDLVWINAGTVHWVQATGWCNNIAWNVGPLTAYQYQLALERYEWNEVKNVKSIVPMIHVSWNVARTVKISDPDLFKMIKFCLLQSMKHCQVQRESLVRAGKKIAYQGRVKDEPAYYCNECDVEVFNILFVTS
Sequence of KDM4A: lysine specific demethylase 4A (O75164 1-359): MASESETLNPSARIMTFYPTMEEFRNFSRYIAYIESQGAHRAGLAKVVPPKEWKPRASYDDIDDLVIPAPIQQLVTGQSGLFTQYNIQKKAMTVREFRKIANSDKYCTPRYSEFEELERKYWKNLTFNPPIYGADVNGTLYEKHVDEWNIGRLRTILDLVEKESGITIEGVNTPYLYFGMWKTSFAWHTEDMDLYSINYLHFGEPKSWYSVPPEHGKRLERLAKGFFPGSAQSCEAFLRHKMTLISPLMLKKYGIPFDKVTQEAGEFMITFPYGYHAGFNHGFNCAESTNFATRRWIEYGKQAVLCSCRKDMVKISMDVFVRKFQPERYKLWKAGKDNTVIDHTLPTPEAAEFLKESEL

| SMILES | IC50 [1] [nM] | protein level of HIF1-α (immunoblot) [2] | other results |
| --- | --- | --- | --- |
| O=C(Nc1ccc(-c2ccccc2)cc1)c1cnc2c(cnc3ccnn32)c1O [Compound 119, N-([1,1′-Biphenyl]-4-yl)-6-hydroxypyrazolo[1,5-a]pyrido[3,2-e]pyrimidine-7-carboxamide] | 1 to 1000 | increase HIF-1α | – |
| O=C(NCc1ccc(-c2ccccc2)cc1)c1cnc2c(cnc3ccnn32)c1O [Compound 117, N-([1,1′-Biphenyl]-4-ylmethyl)-6-hydroxypyrazolo[1,5-a]pyrido[3,2-e]pyrimidine-7-carboxamide] | 1 to 1000 | increase HIF-1α | – |
| O=c1c(-n2ccnn2)c[nH]n1-c1cc(N2CCOCC2)ncn1 [molidustat] | – | – | cell death (apoptosis) [3]: induced cell death; proliferation [3]: reduced proliferation |
| COC(=O)C(=O)N[C@H](Cc1ccccc1)C(=O)OC [DM-NOFD, dimethyl N-oxalyl-D-phenylalanine] | – | – | proliferation and survival (Annexin-V+DAPI+) of AML cells ([4]; THP-1 cells, FIH inhibitor DM-NOFD alone or combined): no impact on proliferation and survival of AML cells |
| Cc1nc(C(=O)NCC(=O)O)c(O)c2ccc(Oc3ccccc3)cc12 [roxadustat] | – | – | proliferation ([4]; THP-1, 50 μM): strong anti-leukaemic activity |
| O=C(NCC1CCC(C(F)(F)F)CC1)c1cnc(-n2cccn2)cc1O (centres unmarked) [Compound 68, 4-Hydroxy-6-(1H-pyrazol-1-yl)-N-((4-(trifluoromethyl)cyclohexyl)methyl) nicotinamide] | – | – | IC50 [5]: > 100000 nM; IC50 [6]: > 100000 nM; IC50 [7]: > 100000 nM; protein level of HIF1-α (immunoblot) [8]: increase cellular HIF-1α; IC50 for off-target sites [9]: very high IC50 |
| Cc1cc2nc(C)c3c(O)c(C(=O)NCc4ccc(-c5ccccc5)cc4)cnc3n2n1 [Compound 122, N-([1,1′-Biphenyl]-4-ylmethyl)-6-hydroxy-2,5-dimethylpyrazolo[1,5-a]pyrido[3,2-e]pyrimidine-7-carboxamide] | 1 to 1000 | increase HIF-1α | – |
| Cc1cc2nc(C)c3c(O)c(C(=O)NCc4ccc(C(F)(F)F)cc4)cnc3n2n1 [Compound 123, 6-Hydroxy-2,5-Dimethyl-N-(4-(trifluoromethyl)benzyl) pyrazolo[1,5-a]pyrido[3,2-e]pyrimidine-7-carboxamide] | 1 to 1000 | increase HIF-1α | – |
| O=C(O)c1cnn(-c2ncc(C(=O)NCc3ccc(-c4ccccc4)cc3)cc2O)c1 [Compound 86, 1-(5-(([1,1′-Biphenyl]-4-ylmethyl)carbamoyl)-3-hydroxypyridin-2-yl)-1H-pyrazole-4-carboxylic acid] | 1 to 1000 | – | – |
| N#Cc1cnc(-n2cc(C(=O)NCc3ccc(-c4ccc(C(=O)O)cc4)nc3)cn2)nc1O [Compound 162, 4-(5-((1-(5-cyano-4-hydroxypyrimidin-2-yl)-1H-pyrazole-4-carboxamido)methyl)pyridin-2-yl)benzoic acid] | 1000 to 10000 | – | – |
| CC1(C)CCC(CN2CCN(c3ccc(C(=O)NS(=O)(=O)c4ccc(NCC5CCOCC5)c([N+](=O)[O-])c4)c(Oc4cnc5[nH]ccc5c4)c3)CC2)=C(c2ccc(Cl)cc2)C1 [Venetoclax, venetoclax, reference compound] | – | – | leukaemic burden [10]: decreased leukaemic burden; survival of recipient mice [10]: extended survival of the recipient mice |
| N#Cc1cnc(-n2cc(C(=O)NCc3ccc(-c4ccccc4)cc3)cn2)nc1O [Compound 158, N-([1,1′-biphenyl]-4-ylmethyl)-1-(5-cyano-4-hydroxypyrimidin-2-yl)-1H-pyrazole-4-carboxamide] | 1 to 1000 | – | – |
| O=C(NCc1ccc(-c2ccccc2)cc1)c1ccc(-n2cccn2)cc1O [Compound 16, N-([1,1′-biphenyl]-4-ylmethyl)-2-hydroxy-4-(1H-pyrazol-1-yl)benzamide] | > 10000 | – | – |
